Data reported in ChEMBL document CHEMBL3593220, “Antimitotic and antivascular activity of heteroaroyl-2-hydroxy-3,4,5-trimethoxybenzenes” (Bioorg Med Chem, 2015).
Active and inactive are the calls of the source. The rule behind the calls is not given here.

What was measured:
[1] = Toxicity in HUVEC assessed as cell viability at 50 nM after 4 hrs relative to control; format: cell-based; settings: human, HUVEC cells; read-out: Activity
[2] = Toxicity in HUVEC assessed as cell viability at 2500 nM after 4 hrs relative to control; format: cell-based; settings: human, HUVEC cells; read-out: Activity
HUVEC [3] = assay: Antivascular activity in HUVEC assessed as inhibition of VEGF-induced capillary tube formation at 500 nM after 4 hrs by microscopic analysis relative to control; format: functional, Homo sapiens; parameters: scale not given: the % may be the effect or the level left
[4] = Antiproliferative activity against human KB-S15 cells expressing P-gp170/MDR after 72 hrs by methylene blue assay; format: functional, cell-based; settings: KB-S15, 72 h
HUVEC [5] = assay: Antivascular activity in HUVEC assessed as inhibition of VEGF-induced capillary tube formation at 50 nM after 4 hrs by microscopic analysis relative to control; format: functional, Homo sapiens; parameters: scale not given: the % may be the effect or the level left
HT-29 = assay: Antiproliferative activity against human HT-29 cells after 72 hrs by methylene blue assay; format: functional, cell-based
Tubulin (Homo sapiens) = Tubulin (Homo sapiens) (UniProt P68371+Q9H4B7+P0DPH7+P68366+Q13509+Q71U36+P04350+Q3ZCM7+P07437+P68363+Q9BQE3+Q6PEY2+Q13885+Q9BVA1+Q9BUF5); assay: Displacement of 1 uM of [3H]colchicine from biotin-labeled tubulin (unknown origin) after 2 hrs by scintillation proximity assay; format: protein-complex assay
KB = assay: Antiproliferative activity against human KB cells after 72 hrs by methylene blue assay; format: functional, cell-based
HUVEC [6] = assay: Antivascular activity in HUVEC assessed as inhibition of VEGF-induced capillary tube formation at 100 nM after 4 hrs by microscopic analysis relative to control; format: functional, Homo sapiens; parameters: scale not given: the % may be the effect or the level left
[7] = Toxicity in HUVEC assessed as cell viability at 500 nM after 4 hrs relative to control; format: cell-based; settings: human, HUVEC cells; read-out: Activity
[8] = Antiproliferative activity against human KB-VIN10 cells expressing P-gp170/MDR after 72 hrs by methylene blue assay; format: functional, cell-based; settings: KB-VIN10, 72 h
HUVEC [9] = assay: Antivascular activity in HUVEC assessed as inhibition of VEGF-induced capillary tube formation at 2500 nM after 4 hrs by microscopic analysis relative to control; format: functional, Homo sapiens; parameters: scale not given: the % may be the effect or the level left
[10] = Toxicity in HUVEC assessed as cell viability at 100 nM after 4 hrs relative to control; format: cell-based; settings: human, HUVEC cells; read-out: Activity
[11] = Antiproliferative activity against human MKN45 cells after 72 hrs by methylene blue assay; format: functional, cell-based; settings: MKN-45, 72 h
[12] = Antiproliferative activity against human KB-7d cells expressing MRP after 72 hrs by methylene blue assay; format: functional, cell-based; settings: KB7D
Tubulin = Tubulin (Bos taurus, UniProt Q6B856+Q862F3); assay: Inhibition of bovine brain tubulin polymerization after 30 mins
Chain of Tubulin (Q6B856 whole entry): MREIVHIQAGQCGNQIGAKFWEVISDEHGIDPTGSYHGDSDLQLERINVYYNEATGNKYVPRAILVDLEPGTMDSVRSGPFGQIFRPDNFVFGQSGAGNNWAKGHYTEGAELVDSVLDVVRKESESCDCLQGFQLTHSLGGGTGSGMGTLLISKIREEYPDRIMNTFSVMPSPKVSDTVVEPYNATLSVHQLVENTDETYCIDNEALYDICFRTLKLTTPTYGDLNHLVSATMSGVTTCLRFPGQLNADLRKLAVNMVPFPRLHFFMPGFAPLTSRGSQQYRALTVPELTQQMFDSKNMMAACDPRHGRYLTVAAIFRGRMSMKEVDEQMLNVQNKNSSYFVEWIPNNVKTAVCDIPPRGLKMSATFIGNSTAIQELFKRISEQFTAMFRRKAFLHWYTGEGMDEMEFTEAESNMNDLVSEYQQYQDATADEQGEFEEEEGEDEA
Chain of Tubulin (Q862F3 whole entry): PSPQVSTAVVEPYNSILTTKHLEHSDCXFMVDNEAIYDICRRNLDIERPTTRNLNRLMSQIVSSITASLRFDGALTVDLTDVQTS

HUVEC [13] = assay: Antivascular activity in HUVEC assessed as inhibition of VEGF-induced capillary tube formation at 20 nM after 4 hrs by microscopic analysis relative to control; format: functional, Homo sapiens; parameters: scale not given: the % may be the effect or the level left
[14] = Toxicity in HUVEC assessed as cell viability at 20 nM after 4 hrs relative to control; format: cell-based; settings: human, HUVEC cells; read-out: Activity

SMILES	inhibition (Tubulin (Homo sapiens)) [%]	IC50 (KB) [nM]	IC50 (Tubulin) [nM]	IC50 [4] [nM]	Activity (HT-29)	IC50 [8] [nM]	IC50 [11] [nM]	IC50 [12] [nM]	further results
CC(=O)O[C@H]1C(=O)[C@@]2(C)[C@H]([C@H](OC(=O)c3ccccc3)[C@]3(O)C[C@H](OC(=O)[C@H](O)[C@@H](NC(=O)c4ccccc4)c4ccccc4)C(C)=C1C3(C)C)[C@]1(OC(C)=O)CO[C@@H]1C[C@@H]2O [PACLITAXEL]	–	–	–	–	–	–	–	8.4	–
COc1cc([C@@H]2c3cc4c(cc3[C@@H](O[C@@H]3O[C@@H]5CO[C@@H](C)O[C@H]5[C@H](O)[C@H]3O)[C@H]3COC(=O)[C@H]23)OCO4)cc(OC)c1O [ETOPOSIDE]	–	–	–	3500	–	–	–	–	–
CC[C@]1(O)C[C@H]2CN(CCc3c([nH]c4ccccc34)[C@@](C(=O)OC)(c3cc4c(cc3OC)N(C=O)[C@H]3[C@@](O)(C(=O)OC)[C@H](OC(C)=O)[C@]5(CC)C=CCN6CC[C@]43[C@@H]65)C2)C1 [VINCRISTINE]	–	–	–	2.1	–	–	–	1.5	–
COc1cc(C(=O)c2cccc3c2ccn3C)c(O)c(OC)c1OC	66.3	57.3	8200	32.6	Active	42.8	55.4	40	–
COc1ccc(/C=C\c2cc(OC)c(OC)c(OC)c2)cc1O [COMBRETASTATIN A4]	–	–	–	–	–	–	3.2	–	Activity (HUVEC [13]): 0%; viability at 4 h, 0.02 µM [14]: 94%

Second part, led by results:

inhibition (Tubulin (Homo sapiens)) [%]	IC50 (KB) [nM]	IC50 (Tubulin) [nM]	SMILES	IC50 [4] [nM]	Activity (HT-29)	IC50 [8] [nM]	IC50 [11] [nM]	IC50 [12] [nM]	further results
87.2	8.8	4200	COc1ccc2c(C(=O)c3cc(OC)c(OC)c(OC)c3O)c[nH]c2c1	5.8	Active	9.5	10.5	8.5	viability at 4 h, 0.05 µM [1]: 100%; viability at 4 h, 2.5 µM [2]: 99%; Activity (HUVEC [3]): 0%; Activity (HUVEC [5]): 72%; Activity (HUVEC [6]): 49%; viability at 4 h, 0.5 µM [7]: 93%; Activity (HUVEC [9]): 0%; viability at 4 h, 0.1 µM [10]: 96%
–	230	–	COc1ccc2nc(C(=O)c3cc(OC)c(OC)c(OC)c3O)ccc2c1	–	Active	–	1160	–	–
84.4	33	4900	COc1cc(C(=O)c2ccc3c(ccn3C)c2)c(O)c(OC)c1OC	16.2	Active	20.8	93.7	18.2	viability at 4 h, 0.05 µM [1]: 95%; viability at 4 h, 2.5 µM [2]: 95%; Activity (HUVEC [3]): 41%; Activity (HUVEC [5]): 72%; Activity (HUVEC [6]): 53%; viability at 4 h, 0.5 µM [7]: 97%; Activity (HUVEC [9]): 0%; viability at 4 h, 0.1 µM [10]: 94%
–	7700	–	COc1cc(C(=O)c2ccnc3ccccc23)c(O)c(OC)c1OC	–	Active	–	5960	–	–
–	22.9	–	COc1cc(C(=O)c2ccc3ncccc3c2)c(O)c(OC)c1OC	–	Active	–	116	–	–
